Assay results as given in patent publication US12383539B2 (Cavion, Inc., priority 2018, dated 2025).
“And” between values parts separate entries of the source, which are not always exact repeats. Identical values can stand only once. Like-named read-outs stand apart in the source and are kept apart here.

Assays:
[1] = type: in vivo; conditions: rat NOAEL 300 mg/kg, human 10 mg BID
[2] = Clinical PK crossover study of IR, MR1 and MR2 capsules, single 8 mg dose; type: in vivo, human
Text: Subjects will be screened for study eligibility within 28 days before administration of the first dose of study drug. Subjects who meet the study eligibility criteria will be admitted to the clinical research unit in the afternoon of the day before administration of the first dose of study drug (Period 1/Day −1).
Treatments A, B, and C will be separated by a minimum 7-day washout period. […] Administration of Treatment D may be separated from administration of Treatments A, B, and C by approximately 4 weeks to allow for analysis of the bioanalytical samples from the first 3 treatments.
A single dose, crossover clinical trial was conducted in 15 subjects ranging in age from 35-75 years.

[3] = type: in vivo; conditions: dog NOAEL 30 mg/kg, human 10 mg BID
[4] = following a single 8 mg dose of IR CX-8998
[5] = following a single 8 mg dose of MR1 CX-8998
[6] = following a single 8 mg dose of MR2 CX-8998

In the case of `C=C(C)c1ccc(CC(=O)N[C@H](C)c2ccc(OCC(F)(F)F)cn2)cc1` [M01], the “total safety margin, AUC24hr” value ([1]; Day 90, female) is reported as 13 fold, the “total safety margin, Css (animal Cmax / human estimated Css at steady state)” value ([1]; Day 90, female) is reported as 21 fold and the “total safety margin, AUC24hr” value ([1]; Day 90, male) is reported as 6.8 fold. The “total safety margin, Css (animal Cmax / human estimated Css at steady state)” value ([1]; Day 90, male) was 13 fold, the “AUC72hr Ratio (metabolite to CX-8998)” value [2, 4] was 0.92 and the “Cmax Ratio (metabolite to CX-8998)” value [2, 4] was 0.14. The “AUC72hr Ratio (metabolite to CX-8998)” value [2, 5] was 0.95, the “Cmax Ratio (metabolite to CX-8998)” value [2, 5] was 0.27 and the “AUC72hr Ratio (metabolite to CX-8998)” value [2, 6] was 0.90. For the same molecule, the “Cmax Ratio (metabolite to CX-8998)” value [2, 6] was 0.35, the “total safety margin, AUC24hr” value ([3]; Day 90, female) was 5.6 fold and the “total safety margin, Css (animal Cmax / human estimated Css at steady state)” value ([3]; Day 90, female) was 8 fold and 8.0 fold. The “total safety margin, AUC24hr” value ([3]; Day 90, male) was 6.5 fold and the “total safety margin, Css (animal Cmax / human estimated Css at steady state)” value ([3]; Day 90, male) was 10 fold.
